{
  "source": "patent US20220218715A1",
  "about": "“NOVEL USE OF PYRROLO-PYRIDINE DERIVATIVE COMPOUND FOR PREVENTION AND/OR TREATMENT OF CANCER” (VORONOI CO., LTD., priority 2019, published 2022)",
  "key": {"PC-9 lung cancer cells": {"tested_on": "PC-9 lung cancer cells", "test": "Anticancer effect in mouse model with PC-9 lung cancer cells", "type": "in vivo, Balb/c Nude Mice", "conditions": "PC-9 model; singular treatment with EGFR targeting drug, PO QD (Gefitinib 10 mg/kg, Osimertinib 3 mg/kg)", "protocol": "(§1) The PC-9 cell line was purchased from NanJing Cobioer Biological Technology Co., Ltd. Cells were kept in RPMI-1640 containing 10% FBS, and cultured in a 37° C. humidified cell culture incubator at 5% C2. All animal experiments were carried out according to the Animal Use and Management Guidelines of Shanghai Medicilon Inc. Under sterile conditions, 2×10^6 PC-9 tumor cells (0.1 mL, cell:Matrigel®=1:1) was administered to the right waist of each animal by S.C. administration. Tumor size and animal body weight were measured twice weekly, and clinical symptoms were recorded daily. The mice will be administered individually according to most recent body weight. The tumors were measured using calipers using two measurements, length (a) and width (b). The volume of the tumors was calculated individually as follows, from the two measured diameters of the tumors: tumor volume (mm^3)=(a×b^2)/2."}, "[1]": {"tested_on": "NCI-H1975 lung cancer cells", "test": "Anticancer effect in mouse model with NCI-H1975 lung cancer cells", "type": "in vivo, Balb/c Nude Mice", "conditions": "singular treatment with Osimertinib 3.5 mg/kg PO QD", "protocol": "as §1, with “NCI-H1975” for “PC-9”, “the Institute of Biochemistry and Cell Biology (Shanghai Institutes for” for “NanJing Cobioer”, “Sciences, CAS).” for “Technology Co., Ltd.”, “CO2.” for “C2.”, “Under sterile conditions, 2×10^6 PC-9 tumor cells (0.1 mL, cell:Matrigel®=1:1) was administered to the right waist of each animal by S.C. administration.” left out"}},
  "data": [
    {"smiles": "C=CC(=O)Nc1cc(Nc2nccc(-c3cn(C)c4ccccc34)n2)c(OC)cc1N(C)CCN(C)C", "note": "[Osimertinib, reference compound]", "values": [
      {"measurement": "cancer cell regrowth during treatment", "setting": "PC-9 lung cancer cells", "value": "early regrowth of cancer cells was observed"},
      {"measurement": "cancer cell regrowth during treatment", "setting": "[1]", "value": "early regrowth of cancer cells was observed"}
    ]}
  ]
}
